{
  "source": "ChEMBL document CHEMBL1667785",
  "about": "“Synthesis and structure-analgesic activity relationships of a novel series of monospirocyclopiperazinium salts (MSPZ)” (Bioorg Med Chem Lett, 2011)",
  "data": [
    {"biological_target": "Neuronal acetylcholine receptor subunit alpha-7 (Homo sapiens, UniProt P36544)", "sequence (P36544 whole entry)": "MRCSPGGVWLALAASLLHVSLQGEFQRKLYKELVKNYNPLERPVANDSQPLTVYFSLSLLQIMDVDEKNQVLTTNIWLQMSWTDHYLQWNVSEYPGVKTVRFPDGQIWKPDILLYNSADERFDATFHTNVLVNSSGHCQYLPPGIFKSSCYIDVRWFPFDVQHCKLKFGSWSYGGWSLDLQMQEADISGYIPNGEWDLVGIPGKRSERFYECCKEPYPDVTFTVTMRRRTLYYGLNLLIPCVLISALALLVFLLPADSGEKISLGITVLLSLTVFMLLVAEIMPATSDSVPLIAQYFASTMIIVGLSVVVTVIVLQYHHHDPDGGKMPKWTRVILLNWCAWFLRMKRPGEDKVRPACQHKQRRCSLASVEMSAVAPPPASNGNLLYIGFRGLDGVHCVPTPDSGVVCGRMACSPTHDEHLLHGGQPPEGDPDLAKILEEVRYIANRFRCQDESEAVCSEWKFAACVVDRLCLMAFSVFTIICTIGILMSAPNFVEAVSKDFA", "test": "Binding affinity to alpha7 nAChR", "units": {"Ki": "µM"}, "values": [
      {"molecule": "CC(COc1ccc(/C=C\\c2ccccc2)cc1)[N+](C)(C)C", "note": "(centres undefined)", "Ki": 0.057}
    ]},
    {"biological_target": "Neuronal acetylcholine receptor subunit beta-2 (Homo sapiens, UniProt P17787)", "sequence (P17787 whole entry)": "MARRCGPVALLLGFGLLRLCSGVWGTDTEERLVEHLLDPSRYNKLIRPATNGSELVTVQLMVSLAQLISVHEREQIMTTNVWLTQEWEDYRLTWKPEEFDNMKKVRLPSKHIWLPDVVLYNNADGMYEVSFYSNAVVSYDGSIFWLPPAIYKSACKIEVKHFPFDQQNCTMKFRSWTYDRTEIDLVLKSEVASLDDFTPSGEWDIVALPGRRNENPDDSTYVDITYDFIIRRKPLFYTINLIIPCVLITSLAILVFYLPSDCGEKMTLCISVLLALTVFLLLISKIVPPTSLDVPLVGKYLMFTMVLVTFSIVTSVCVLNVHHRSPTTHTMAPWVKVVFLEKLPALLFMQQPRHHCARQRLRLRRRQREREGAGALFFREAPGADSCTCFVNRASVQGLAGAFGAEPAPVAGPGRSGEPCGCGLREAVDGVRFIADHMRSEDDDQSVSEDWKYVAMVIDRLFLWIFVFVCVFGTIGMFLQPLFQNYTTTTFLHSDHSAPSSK", "test": "Binding affinity to beta2 nAChR", "units": {"Ki": "µM"}, "values": [
      {"molecule": "CC(COc1ccc(/C=C\\c2ccccc2)cc1)[N+](C)(C)C", "note": "(centres undefined)", "Ki": 39}
    ]},
    {"system": "Mus musculus", "test": "Analgesic activity in mouse assessed as inhibition of acetic acid-induced writhing at 20 umol/kg, sc administered 30 mins before to acetic acid challenge measured after 5 mins for 10 mins relative to control", "assay_type": "functional", "set-up": "scale not given: the % may be the effect or the level left", "units": {"Activity": "%"}, "values": [
      {"molecule": "COc1ccc(N2CC[N+]3(CCNCC3)CC2)cc1.[Cl-]", "Activity": 5},
      {"molecule": "COc1cccc(N2CC[N+]3(CCc4ccccc43)CC2)c1.[Cl-]", "Activity": 37},
      {"molecule": "COc1ccc(N2CC[N+]3(CCN(CCc4ccccc4)CC3)CC2)cc1.[Cl-]", "Activity": 27},
      {"molecule": "CCCC[N+]1(CCCC)CCN(c2ccc(OC)cc2)CC1.[Cl-]", "Activity": 54},
      {"molecule": "COc1ccc(N2CC[N+]3(CCN(C(=O)c4ccccc4)CC3)CC2)cc1.[Cl-]", "Activity": 50},
      {"molecule": "COc1ccc(N2CC[N+]3(CCOCC3)CC2)cc1.[Cl-]", "Activity": 41},
      {"molecule": "COc1ccccc1N1CC[N+]2(CCc3ccccc32)CC1.[Cl-]", "Activity": 39},
      {"molecule": "COc1ccc(N2CC[N+](C)(C)CC2)cc1.[Cl-]", "Activity": 56},
      {"molecule": "COc1ccc(N2CC[N+]3(CCN(C)CC3)CC2)cc1.[Cl-]", "Activity": 32},
      {"molecule": "COc1ccc(N2CC[N+]3(CC2)CCN(c2ccc(OC)cc2)CC3)cc1.[Cl-]", "Activity": 17},
      {"molecule": "Clc1ccccc1N1CC[N+]2(CCc3ccccc32)CC1.[Cl-]", "Activity": 44},
      {"molecule": "COc1ccc(N2CC[N+](C)(Cc3ccccc3)CC2)cc1.[Cl-]", "Activity": 43},
      {"molecule": "[Cl-].c1ccc(N2CC[N+]3(CCc4ccccc43)CC2)cc1", "Activity": 28},
      {"molecule": "COc1ccc(N2CC[N+]3(CCCC3)CC2)cc1.[Cl-]", "Activity": 41},
      {"molecule": "COc1ccc(N2CC[N+]3(CC2)CC(C)OC(C)C3)cc1.[Cl-]", "note": "(centres undefined)", "Activity": 21},
      {"molecule": "CS(=O)(=O)[O-].O=[N+]([O-])c1ccc(N2CC[N+]3(CCc4ccccc43)CC2)cc1", "Activity": 54},
      {"molecule": "COc1ccc(N2CC[N+]3(CCc4ccccc43)CC2)cc1.[Cl-]", "Activity": 63},
      {"molecule": "COc1ccc(N2CC[N+]3(CCCCC3)CC2)cc1.[Cl-]", "Activity": 26},
      {"molecule": "Oc1cccc(N2CC[N+]3(CCc4ccccc43)CC2)c1.[Cl-]", "Activity": 34},
      {"molecule": "COc1ccc(N2CC[N+]3(CCCCCC3)CC2)cc1.[Cl-]", "Activity": 28},
      {"molecule": "CS(=O)(=O)[O-].O=[N+]([O-])c1cccc(N2CC[N+]3(CCc4ccccc43)CC2)c1", "Activity": 39},
      {"molecule": "CC(=O)Nc1cccc(N2CC[N+]3(CCc4ccccc43)CC2)c1.[Cl-]", "Activity": 39}
    ]}
  ]
}
